Source: patent publication US20240226055A1, “TREATMENT OF DISORDERS WITH TASIMELTEON” (Vanda Pharmaceuticals Inc., priority 2018, published 2024)

What was measured:
[1] = Phase III clinical study of an 8-hour advance in usual bedtime (jet lag disorder circadian challenge); format: in vivo, human
Source text: In the course of the trial, volunteers are subjected to a circadian challenge of an 8-hour advance in their usual bedtime, consistent with the circadian challenge induced in travelers crossing eight time zones (e.g., Los Angeles to London or Washington, DC to Moscow) and typically causing jet lag disorder.
The pre-specified primary endpoint used for this purpose is the amount of sleep time in the first two thirds of the night. Secondary endpoints include measures of various sleep parameters-total sleep time (TST), latency to persistent sleep (LPS), and wake after sleep onset (WASO)-as well as next day alertness, measured using the Karolinska Sleepiness Scale (KSS) and Visual Analog Scale (VAS).

[2] = Two-phase transatlantic travel study (jet lag, five or eight time zones); format: in vivo, human; conditions: for Objective TST2/3 Night 3, change from baseline: 20 mg for three consecutive nights prior to bedtime; for Objective TST2/3 Night 3, change from baseline / Objective TST2/3 All 3 nights, change from baseline: treated travel vs baseline observational travel
Source text: A two-phase transatlantic travel study of 25 subjects (tasimelteon n=13, placebo n=12) comprises a first phase that is an observational travel study to collect baseline data, and a second phase that is a treatment phase. Participants in the study travel either five or eight time zones from Washington, DC to London (five time zones) or San Francisco or Los Angeles to London (eight time zones). Participants stay at their destination for three nights and four days and during randomization receive 20 mg of tasimelteon for three consecutive nights prior to their bedtime. Efficacy is monitored by PSG as well as sleep and wake questionnaire scales.
The primary endpoint of the study is TST for the first 2/3 of the night(s) most likely to be disrupted. These are, from Table 2, Night 3, followed by Night 1 and Night 2.
Measures of global function, including Patient Global Impression of Severity (PGI-S) and KSS also favor tasimeltcon.

[3] = 20 mg dose, 8-hour bedtime advance, difference from placebo
[4] = 20 mg dose, 8-hour bedtime advance, treatment group value
[5] = 8-hour phase advance, difference from placebo
[6] = 8-hour phase advance, treatment group value
[7] = 20 mg for three consecutive nights, Post-Sleep Questionnaire
[8] = 20 mg for three consecutive nights, difference from placebo
[9] = Post-Sleep Questionnaire, difference from placebo

CCC(=O)NC[C@@H]1C[C@H]1c1cccc2c1CCO2 [Hetlioz ®, tasimelteon]
PSG TST2/3 (sleep time in first two thirds of the night, primary endpoint) ([1]; 20 mg dose, 8-hour bedtime advance, healthy volunteers, treatment group value): 216.4 min | KSS (1-9) average, next day alertness ([1]; 20 mg dose, 8-hour bedtime advance, Karolinska Sleepiness Scale, treatment group value): 4.0 | VAS (0-100) average, next day alertness ([1]; 20 mg dose, 8-hour bedtime advance, Visual Analog Scale, treatment group value): 60.8 | KSS (1-9) average, Diff vs placebo [1, 3]: −0.53 | PSG LPS, Diff vs placebo [1, 3]: -15.08 min | PSG TST2/3, Diff vs placebo [1, 3]: 60.31 min | PSG TSTfull, Diff vs placebo [1, 3]: 85.46 min | PSG WASO, Diff vs placebo [1, 3]: -74.58 min | VAS (0-100) average, Diff vs placebo [1, 3]: 6.59 | PSG TSTfull, Diff vs placebo ([1]; 20 mg dose, 8-hour bedtime advance, difference from placebo, listed as tasimelteon): 85 min | PSG LPS (latency to persistent sleep) [1, 4]: 21.8 min | PSG TSTfull (total sleep time) [1, 4]: 315.8 min | PSG WASO (wake after sleep onset) [1, 4]: 144.6 min | PSG REMTotal, Difference vs placebo [1, 5]: 13.7 min | REMAccumulate, Difference vs placebo [1, 5]: -53.3 min | REMAchieved, Difference vs placebo [1, 5]: 24.5% | PSG REMTotal (total REM sleep period) [1, 6]: 48.9 min | REMAccumulate (time required to accumulate 30 minutes of REM sleep) [1, 6]: 318.7 min | REMAchieved [1, 6]: 76.1% | Objective TST2/3 Night 3, change from baseline ([2]; listed as HETLIOZ ®): 76.2 min | Objective TST2/3 Night 3, change from baseline ([2]; listed as Tasimelteon): 76 min | Global measures KSS Day 4, change from baseline ([2]; 20 mg for three consecutive nights, Karolinska Sleepiness Scale): −1.69 | Global measures PGI-S Day 3, change from baseline ([2]; 20 mg for three consecutive nights, Patient Global Impression of Severity): −0.71 | Subjective Sleep Latency Night 3, change from baseline [2, 7]: −20.6 | Subjective Sleep Quality Night 3, change from baseline [2, 7]: 1.31 | Subjective TSTFull All 3 Nights, change from baseline [2, 7]: 240.0 | Subjective TSTFull Night 3, change from baseline [2, 7]: 111.9 | Subjective WASO Night 3, change from baseline [2, 7]: −81.1 | Objective TST2/3 All 3 nights, change from baseline, Difference vs placebo [2, 8]: 90.6 min | Objective TST2/3 Night 3, change from baseline, Difference vs placebo [2, 8]: 34.8 min | Objective TST2/3 All 3 nights, change from baseline ([2]; 20 mg for three consecutive nights, listed as HETLIOZ ®): 131.4 min | Objective TST2/3 All 3 nights, change from baseline ([2]; 20 mg for three consecutive nights, listed as Tasimelteon): 131 min | Global measures KSS Day 4, change from baseline, Difference vs placebo ([2]; Karolinska Sleepiness Scale, difference from placebo): −1.00 | Global measures PGI-S Day 3, change from baseline, Difference vs placebo ([2]; Patient Global Impression of Severity, difference from placebo): −0.63 | Subjective Sleep Latency Night 3, change from baseline, Difference vs placebo [2, 9]: −26.5 | Subjective Sleep Quality Night 3, change from baseline, Difference vs placebo [2, 9]: 0.95 | Subjective TSTFull All 3 Nights, change from baseline, Difference vs placebo [2, 9]: 174.9 | Subjective TSTFull Night 3, change from baseline, Difference vs placebo [2, 9]: 78.5 | Subjective WASO Night 3, change from baseline, Difference vs placebo [2, 9]: −56.4
